Data from patent US9216999B2, “Substituted pyrrolo[2,3-h][1,6]naphthyridines and compositions thereof as JAK inhibitors” (priority 2011, dated 2015).
Where a name gives a salt, the structure may show the parent alone. Read-outs that look alike come from different tables or passages of the source.

Columns and labels:
Format in all cases: biochemical
JAK1 = JAK1 (Homo sapiens (Human), UniProt P23458); experiment: Enzyme assay (Assay Example^a 1), JAK1; details: ATP 100 μM
JAK2 = JAK2 (Homo sapiens (Human), UniProt O60674); experiment: Enzyme assay (Assay Example^a 1), JAK2
JAK3 = JAK3 (Homo sapiens (Human), UniProt P52333); experiment: Enzyme assay (Assay Example^a 1), JAK3
Chain of JAK3 (P52333 whole entry): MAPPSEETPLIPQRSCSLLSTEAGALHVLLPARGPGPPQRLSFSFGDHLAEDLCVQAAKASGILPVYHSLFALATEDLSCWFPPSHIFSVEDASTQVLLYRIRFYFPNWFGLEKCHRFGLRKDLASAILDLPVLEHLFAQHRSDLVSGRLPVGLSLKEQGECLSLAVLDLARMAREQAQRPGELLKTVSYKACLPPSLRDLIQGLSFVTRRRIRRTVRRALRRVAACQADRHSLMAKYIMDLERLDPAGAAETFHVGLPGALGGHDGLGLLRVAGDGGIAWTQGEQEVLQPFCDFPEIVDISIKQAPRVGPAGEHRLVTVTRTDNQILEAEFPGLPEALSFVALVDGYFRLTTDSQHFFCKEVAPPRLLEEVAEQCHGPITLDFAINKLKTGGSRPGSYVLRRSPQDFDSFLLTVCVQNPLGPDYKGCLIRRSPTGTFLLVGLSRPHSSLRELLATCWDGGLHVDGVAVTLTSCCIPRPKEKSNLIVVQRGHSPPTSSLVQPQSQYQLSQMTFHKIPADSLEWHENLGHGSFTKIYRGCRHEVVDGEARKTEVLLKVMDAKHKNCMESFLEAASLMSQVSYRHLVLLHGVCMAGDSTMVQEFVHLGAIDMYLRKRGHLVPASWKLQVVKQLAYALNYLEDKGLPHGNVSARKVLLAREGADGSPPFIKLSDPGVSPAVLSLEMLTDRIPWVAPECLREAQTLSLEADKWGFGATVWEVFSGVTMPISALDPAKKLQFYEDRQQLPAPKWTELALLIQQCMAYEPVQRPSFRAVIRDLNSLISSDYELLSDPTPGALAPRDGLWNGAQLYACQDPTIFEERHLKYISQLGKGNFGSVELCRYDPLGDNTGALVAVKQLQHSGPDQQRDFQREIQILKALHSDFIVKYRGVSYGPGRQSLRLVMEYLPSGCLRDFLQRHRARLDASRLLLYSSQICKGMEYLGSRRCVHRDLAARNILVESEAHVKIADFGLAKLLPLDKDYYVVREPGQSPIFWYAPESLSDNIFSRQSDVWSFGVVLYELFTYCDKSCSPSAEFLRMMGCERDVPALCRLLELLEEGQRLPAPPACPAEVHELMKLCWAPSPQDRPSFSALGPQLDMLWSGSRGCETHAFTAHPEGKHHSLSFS

Tyk2 = Tyk2 (Homo sapiens (Human), UniProt P29597); experiment: Enzyme assay (Assay Example^a 1), Tyk2; details: ATP 100 μM
Chain of Tyk2 (P29597 whole entry): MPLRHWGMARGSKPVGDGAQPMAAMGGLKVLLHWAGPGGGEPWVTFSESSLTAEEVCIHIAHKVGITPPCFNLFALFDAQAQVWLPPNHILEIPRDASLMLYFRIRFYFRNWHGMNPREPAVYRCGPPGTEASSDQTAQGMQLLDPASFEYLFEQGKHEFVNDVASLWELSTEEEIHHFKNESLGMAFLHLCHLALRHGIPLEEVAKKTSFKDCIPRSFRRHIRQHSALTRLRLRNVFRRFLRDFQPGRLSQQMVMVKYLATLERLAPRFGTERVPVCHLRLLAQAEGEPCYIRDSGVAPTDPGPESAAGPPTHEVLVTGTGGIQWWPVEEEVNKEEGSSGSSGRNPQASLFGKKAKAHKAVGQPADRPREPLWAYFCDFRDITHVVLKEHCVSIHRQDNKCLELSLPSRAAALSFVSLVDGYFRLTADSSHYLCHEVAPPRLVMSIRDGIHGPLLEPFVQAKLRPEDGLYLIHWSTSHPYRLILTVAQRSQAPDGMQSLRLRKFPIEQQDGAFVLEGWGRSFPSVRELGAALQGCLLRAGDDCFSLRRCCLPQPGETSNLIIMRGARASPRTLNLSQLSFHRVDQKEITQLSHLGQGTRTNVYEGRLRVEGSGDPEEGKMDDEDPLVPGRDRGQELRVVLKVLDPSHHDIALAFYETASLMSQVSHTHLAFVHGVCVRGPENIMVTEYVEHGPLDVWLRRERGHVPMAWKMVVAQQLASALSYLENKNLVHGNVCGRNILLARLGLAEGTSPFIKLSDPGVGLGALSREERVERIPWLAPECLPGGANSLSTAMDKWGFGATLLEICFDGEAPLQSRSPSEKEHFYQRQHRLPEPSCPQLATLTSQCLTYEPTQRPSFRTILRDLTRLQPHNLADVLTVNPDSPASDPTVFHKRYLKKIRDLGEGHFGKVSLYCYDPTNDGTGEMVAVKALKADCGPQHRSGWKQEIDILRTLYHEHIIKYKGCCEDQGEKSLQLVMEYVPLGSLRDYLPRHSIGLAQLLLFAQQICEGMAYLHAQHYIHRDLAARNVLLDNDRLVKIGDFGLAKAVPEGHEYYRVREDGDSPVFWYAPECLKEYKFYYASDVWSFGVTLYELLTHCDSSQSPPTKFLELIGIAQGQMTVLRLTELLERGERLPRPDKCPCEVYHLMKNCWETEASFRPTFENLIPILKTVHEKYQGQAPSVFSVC

| IC50 (JAK3; ATP 100 μM) [µM] | IC50 (JAK2; ATP 100 μM) [µM] | SMILES | IC50 (JAK1) [µM] | IC50 (JAK2) [µM] | IC50 (Tyk2) [µM] | IC50 (JAK1; Table^a 154) [µM] | IC50 (JAK2; ATP 100 μM, Table^a 154) [µM] | IC50 (JAK3; ATP 100 μM, Table^a 154) [µM] | IC50 (Tyk2; Table^a 154) [µM] | IC50 (JAK3) [µM] |
| --- | --- | --- | --- | --- | --- | --- | --- | --- | --- | --- |
| 0.38 | 0.026 | O=S(=O)(C[C@H]1CC[C@H](c2nnn3cnc4[nH]ccc4c23)CC1)NC1CC1 [compound 417, 1-[trans-4-(7H-Pyrrolo[3,2-e][1,2,3]triazolo[1,5-c]pyrimidin-1-yl)cyclohexyl]-N-cyclopropylmethanesulfonamide] | 0.0078 | – | 0.42 | – | – | – | – | – |
| – | – | CN(C)[C@H]1CCN(C[C@H]2CC[C@H](c3nnn4cnc5[nH]ccc5c34)CC2)C1 [compound 181, (S)-1-{[trans-4-(7H-pyrrolo[3,2-e][1,2,3]triazolo[1,5-c]pyrimidin-1-yl)cyclohexyl]methyl}-N,N-dimethylpyrrolidin-3-amine] | – | – | – | 0.024 | 0.13 | > 1 | 0.49 | – |
| – | – | Fc1ccc(CN[C@H]2CC[C@H](c3nnn4cnc5[nH]ccc5c34)CC2)cc1 [195b, trans-N-(4-fluorobenzyl)-4-(7H-pyrrolo[3,2-e][1,2,3]triazolo[1,5-c]pyrimidin-1-yl)cyclohexanamine] | – | – | – | 0.007 | 0.042 | 0.56 | 0.12 | – |
| 0.22 | 0.13 | OC12CC3CC(C1)CC(c1nnn4cnc5[nH]ccc5c14)(C3)C2 [compound 445, 3-(7H-Pyrrolo[3,2-e][1,2,3]triazolo[1,5-c]pyrimidin-1-yl)adamantan-1-ol] | 0.031 | – | 0.052 | – | – | – | – | – |
| 0.39 | 0.035 | NC[C@H]1CC[C@H](c2nnn3cnc4[nH]ccc4c23)CC1 [compound 371, [trans-4-(7H-Pyrrolo[3,2-e][1,2,3]triazolo[1,5-c]pyrimidin-1-yl)cyclohexyl]methanamine] | 0.0033 | – | 0.18 | – | – | – | – | – |
| 0.39 | 0.017 | FC(F)(F)C1(NC[C@H]2CC[C@H](c3nnn4cnc5[nH]ccc5c34)CC2)CC1 [compound 292, N-{[trans-4-(7H-pyrrolo[3,2-e][1,2,3]triazolo[1,5-c]pyrimidin-1-yl)cyclohexyl]methyl}-1-(trifluoromethyl)cyclopropanamine] | 0.0027 | – | 0.27 | – | – | – | – | – |
| 0.71 | 0.027 | C=C1CCC(c2nnn3cnc4[nH]ccc4c23)CC1 [compound 433, 1-(4-Methylenecyclohexyl)-7H-pyrrolo[3,2-e][1,2,3]triazolo[1,5-c]pyrimidine] | 0.0081 | – | 0.12 | – | – | – | – | – |
| – | – | O=C(Nc1ccc(F)cc1)[C@H]1CC[C@H](c2nnn3cnc4[nH]ccc4c23)CC1 [compound 206, trans-N-(4-Fluorophenyl)-4-(7H-pyrrolo[3,2-e][1,2,3]triazolo[1,5-c]pyrimidin-1-yl)cyclohexanecarboxamide] | – | – | – | 0.27 | > 1 | > 1 | > 1 | – |
| 0.53 | 0.044 | O=C1OCCC1NC[C@H]1CC[C@H](c2nnn3cnc4[nH]ccc4c23)CC1 (stereo partly drawn) [compound 279, 3-({[trans-4-(7H-pyrrolo[3,2-e][1,2,3]triazolo[1,5-c]pyrimidin-1-yl)cyclohexyl]methyl}amino)dihydrofuran-2(3H)-one] | 0.0074 | – | 0.2 | – | – | – | – | – |
| – | – | N#Cc1ccc(CN[C@H]2CC[C@H](c3nnn4cnc5[nH]ccc5c34)CC2)cc1 [137b] | – | – | – | 0.0041 | 0.039 | 0.38 | 0.088 | – |
| 0.79 | 0.054 | OCC1(NC[C@H]2CC[C@H](c3nnn4cnc5[nH]ccc5c34)CC2)CC1 [compound 327, [1-({[trans-4-(7H-pyrrolo[3,2-e][1,2,3]triazolo[1,5-c]pyrimidin-1-yl)cyclohexyl]methyl}amino)cyclopropyl]methanol] | 0.007 | – | 0.55 | – | – | – | – | – |
| – | – | FC(F)(Br)CN[C@H]1CC[C@@H](c2nnn3cnc4[nH]ccc4c23)CC1 [382a, cis-N-(2-bromo-2,2-difluoroethyl)-4-(7H-pyrrolo[3,2-e][1,2,3]triazolo[1,5-c]pyrimidin-1-yl)cyclohexanamine] | 0.015 | 0.063 | 0.76 | – | – | – | – | 0.75 |
| – | – | c1nc(CCNC[C@H]2CC[C@H](c3nnn4cnc5[nH]ccc5c34)CC2)c[nH]1 [compound 192, N-{[trans-4-(7H-pyrrolo[3,2-e][1,2,3]triazolo[1,5-c]pyrimidin-1-yl)cyclohexyl]methyl}-2-(1H-imidazol-4-yl)ethanamine hydrochloride] | – | – | – | 0.0039 | 0.038 | 0.32 | 0.1 | – |
| 0.87 | 0.062 | O=C(NCC(F)(F)F)C1CN(C[C@H]2CC[C@H](c3nnn4cnc5[nH]ccc5c34)CC2)C1 [compound 426, 1-{[trans-4-(7H-Pyrrolo[3,2-e][1,2,3]triazolo[1,5-c]pyrimidin-1-yl)cyclohexyl]methyl}-N-(2,2,2-trifluoroethyl)azetidine-3-carboxamide] | 0.011 | – | 0.58 | – | – | – | – | – |

| SMILES | IC50 (JAK3; ATP 100 μM) [µM] | IC50 (JAK2; ATP 100 μM) [µM] | IC50 (JAK1) [µM] | IC50 (JAK2) [µM] | IC50 (Tyk2) [µM] | IC50 (JAK1; Table^a 154) [µM] | IC50 (JAK2; ATP 100 μM, Table^a 154) [µM] | IC50 (JAK3; ATP 100 μM, Table^a 154) [µM] | IC50 (Tyk2; Table^a 154) [µM] | IC50 (JAK3) [µM] |
| --- | --- | --- | --- | --- | --- | --- | --- | --- | --- | --- |
| OC1(c2ccc(Cl)c(C(F)(F)F)c2)CCN(C[C@H]2CC[C@H](c3nnn4cnc5[nH]ccc5c34)CC2)CC1 [compound 309, 1-{[trans-4-(7H-pyrrolo[3,2-e][1,2,3]triazolo[1,5-c]pyrimidin-1-yl)cyclohexyl]methyl}-4-[4-chloro-3-(trifluoromethyl)phenyl]piperidin-4-ol] | > 1 | – | 0.0076 | 0.097 | 0.31 | – | – | – | – | – |
| O=C(CN[C@H]1CC[C@H](c2nnn3cnc4[nH]ccc4c23)CC1)NCC(F)(F)F [384b, 2-{[trans-4-(7H-pyrrolo[3,2-e][1,2,3]triazolo[1,5-c]pyrimidin-1-yl)cyclohexyl]amino}-N-(2,2,2-trifluoroethyl)acetamide] | > 1 | 0.08 | 0.022 | – | > 1 | – | – | – | – | – |
| Cc1ccc(CNC(=O)[C@H]2CC[C@H](c3nnn4cnc5[nH]ccc5c34)CC2)o1 [compound 349, trans-N-[(5-methylfuran-2-yl)methyl]-4-(7H-pyrrolo[3,2-e][1,2,3]triazolo[1,5-c]pyrimidin-1-yl)cyclohexanecarboxamide] | > 1 | 0.048 | 0.0059 | – | 0.25 | – | – | – | – | – |
| CN1CCC(c2nnn3cnc4[nH]ccc4c23)CC1 [compound 216, 1-(1-methylpiperidin-4-yl)-7H-pyrrolo[3,2-e][1,2,3]triazolo[1,5-c]pyrimidine] | > 1 | – | 0.38 | > 1 | > 1 | – | – | – | – | – |
| N#CCNC(=O)C[C@H]1CC[C@H](c2nnn3cnc4[nH]ccc4c23)CC1 [443b, 2-[trans-4-(7H-Pyrrolo[3,2-e][1,2,3]triazolo[1,5-c]pyrimidin-1-yl)cyclohexyl]-N-(cyanomethyl)acetamide] | 0.34 | 0.03 | 0.01 | – | > 1 | – | – | – | – | – |
| N#Cc1ccc(CCN[C@H]2CC[C@H](c3nnn4cnc5[nH]ccc5c34)CC2)cc1 [391b, 4-(2-{[trans-4-(7H-pyrrolo[3,2-e][1,2,3]triazolo[1,5-c]pyrimidin-1-yl)cyclohexyl]amino}ethyl)benzonitrile] | > 1 | 0.39 | 0.018 | – | 0.58 | – | – | – | – | – |
| FC(F)(F)C(F)(F)CN[C@H]1CC[C@H](c2nnn3cnc4[nH]ccc4c23)CC1 [383b, trans-N-(2,2,3,3,3-pentafluoropropyl)-4-(7H-pyrrolo[3,2-e][1,2,3]triazolo[1,5-c]pyrimidin-1-yl)cyclohexanamine] | 0.5 | 0.013 | 0.0015 | – | 0.17 | – | – | – | – | – |
